Read-outs that look alike come from different tables or passages of the source. Marks after values point to notes of the source that are not given here.
Tests used:
[1] = In-Vitro Testing SRB panel: Renal Cancer; format: cell-based
SK-MEL-5 = test: In-Vitro Testing SRB panel: Melanoma; format: cell-based; settings: SK-MEL-5
KM12 = test: In-Vitro Testing SRB panel: Colon Cancer; format: cell-based; settings: KM12
ACHN = test: In-Vitro Testing SRB panel: Renal Cancer; format: cell-based
SK-MEL-2B = test: In-Vitro Testing SRB panel: Melanoma; format: cell-based
RPMI-8226 = test: In-Vitro Testing SRB panel: Leukemia; format: cell-based; settings: RPMI-8226
ROP-62 = format: cell-based
SF-268 = test: In-Vitro Testing SRB panel: CNS Cancer; format: cell-based; settings: SF-268
M14 = test: In-Vitro Testing SRB panel: Melanoma; format: cell-based; settings: M14
[2] = test system: SU.86.86 pancreatic adenocarcinoma; test: Mouse xenograft tumor growth; format: in vivo, nude mice; settings: SU.86.86 pancreatic adenocarcinoma mouse xenograft
A498 = test: In-Vitro Testing SRB panel: Renal Cancer; format: cell-based; settings: A498
HS 578T = test: In-Vitro Testing SRB panel: Breast Cancer; format: cell-based
[3] = Preliminary toxicology, subcutaneous injection for 14 days; format: in vivo, CD-1 female mice; settings: CD-1 female mice; 80 mg/kg/day s.c. 14 days
Protocol: The toxicological effects of CLT, and compounds 28, 30 and 31 were tested in CD-1 female mice. A dose of 80 mg/kg/day was given to each mouse via subcutaneous injection for a period of 14 days. Preliminary toxicological data was determined by measuring body weight, gross pathology of organs blood chemistry and histology. The vehicle used was DMF 12%+2% Tween 20 88%.

[4] = test system: panel of human cancer cells; test: In vitro screening, SRB, panel of 60 human cancer cell lines; format: cell-based
MDA-N = test: In-Vitro Testing SRB panel: Breast Cancer; format: cell-based
TK-10 = test: In-Vitro Testing SRB panel: Renal Cancer; format: cell-based; settings: TK-10
DU-145 = test: In-Vitro Testing SRB panel: Prostate Cancer; format: cell-based; settings: DU-145
UACC-257 = test: In-Vitro Testing SRB panel: Melanoma; format: cell-based; settings: UACC-257
[5] = Homo sapiens, read-out: LC50 (the source's name)

COc1cccc2c1C(c1ccccc1Cl)c1cc(Cl)ccc1N(C(=O)c1ccc([N+](=O)[O-])cc1)C2 (stereo not shown) [Compound 31]
TGI ([1]; DO-31): >1.00E−04 Molar
Percent Growth ([1]; DO-31, log10 conc -4 Molar): 1%
Percent Growth ([1]; DO-31, log10 conc -5 Molar): 19%
Percent Growth ([1]; DO-31, log10 conc -6 Molar): 61%
Percent Growth ([1]; DO-31, log10 conc -7 Molar): 104%
Percent Growth ([1]; DO-31, log10 conc -8 Molar): 94%
GI50 ([1]; Homo sapiens): 1.82 µM
CC50 ([1]; Homo sapiens, DO-31, read-out: LC50 (the source's name)): > 100 µM
GI50 (SK-MEL-5; Homo sapiens): 0.597 µM
CC50 (SK-MEL-5; [5]): > 100 µM
TGI (SK-MEL-5): >1.00E−04 Molar
Percent Growth (SK-MEL-5; log10 conc -4 Molar): 17%
Percent Growth (SK-MEL-5; log10 conc -5 Molar): 27%
Percent Growth (SK-MEL-5; log10 conc -6 Molar): 41%
Percent Growth (SK-MEL-5; log10 conc -7 Molar): 81%
Percent Growth (SK-MEL-5; log10 conc -8 Molar): 94%
GI50 (KM12; Homo sapiens): 0.519 µM
CC50 (KM12; [5]): > 100 µM
TGI (KM12): >1.00E−04 Molar
Percent Growth (KM12; log10 conc -4 Molar): 20%
Percent Growth (KM12; log10 conc -5 Molar): 32%
Percent Growth (KM12; log10 conc -6 Molar): 38%
Percent Growth (KM12; log10 conc -7 Molar): 80%
Percent Growth (KM12; log10 conc -8 Molar): 99%
TGI (ACHN): >1.00E−04 Molar
GI50 (ACHN; Homo sapiens): 0.803 µM
CC50 (ACHN; [5]): > 100 µM
Percent Growth (ACHN; log10 conc -4 Molar): 8%
Percent Growth (ACHN; log10 conc -5 Molar): 26%
Percent Growth (ACHN; log10 conc -6 Molar): 45%
Percent Growth (ACHN; log10 conc -7 Molar): 95%
Percent Growth (ACHN; log10 conc -8 Molar): 92%
GI50 (SK-MEL-2B; Homo sapiens): 7.47 µM
CC50 (SK-MEL-2B; Homo sapiens, SK-MEL-2B, read-out: LC50 (the source's name)): > 100 µM
TGI (SK-MEL-2B; SK-MEL-2B): >1.00E−04 Molar
Percent Growth (SK-MEL-2B; SK-MEL-2B, log10 conc -4 Molar): 31%
Percent Growth (SK-MEL-2B; SK-MEL-2B, log10 conc -5 Molar): 48%
Percent Growth (SK-MEL-2B; SK-MEL-2B, log10 conc -6 Molar): 62%
Percent Growth (SK-MEL-2B; SK-MEL-2B, log10 conc -7 Molar): 87%
Percent Growth (SK-MEL-2B; SK-MEL-2B, log10 conc -8 Molar): 92%
GI50 (RPMI-8226; Homo sapiens): 0.327 µM
CC50 (RPMI-8226; [5]): > 100 µM
TGI (RPMI-8226): >1.00E−04 Molar
Percent Growth (RPMI-8226; log10 conc -4 Molar): 21%
Percent Growth (RPMI-8226; log10 conc -5 Molar): 23%
Percent Growth (RPMI-8226; log10 conc -6 Molar): 36%
Percent Growth (RPMI-8226; log10 conc -7 Molar): 65%
Percent Growth (RPMI-8226; log10 conc -8 Molar): 82%
GI50 (ROP-62; Homo sapiens): > 100 µM
CC50 (ROP-62; Homo sapiens, ROP-62, read-out: LC50 (the source's name)): > 100 µM
TGI (ROP-62; ROP-62): >1.00E−04 Molar
Percent Growth (ROP-62; ROP-62, log10 conc -4 Molar): 50%
Percent Growth (ROP-62; ROP-62, log10 conc -5 Molar): 79%
Percent Growth (ROP-62; ROP-62, log10 conc -6 Molar): 88%
Percent Growth (ROP-62; ROP-62, log10 conc -7 Molar): 105%
Percent Growth (ROP-62; ROP-62, log10 conc -8 Molar): 100%
GI50 (SF-268; Homo sapiens): 5.28 µM
CC50 (SF-268; [5]): > 100 µM
TGI (SF-268): >1.00E−04 Molar
Percent Growth (SF-268; log10 conc -4 Molar): 46%
Percent Growth (SF-268; log10 conc -5 Molar): 47%
Percent Growth (SF-268; log10 conc -6 Molar): 59%
Percent Growth (SF-268; log10 conc -7 Molar): 105%
Percent Growth (SF-268; log10 conc -8 Molar): 94%
GI50 (M14; Homo sapiens): 1.22 µM
CC50 (M14; [5]): > 100 µM
TGI (M14): >1.00E−04 Molar
Percent Growth (M14; log10 conc -4 Molar): 21%
Percent Growth (M14; log10 conc -5 Molar): 30%
Percent Growth (M14; log10 conc -6 Molar): 52%
Percent Growth (M14; log10 conc -7 Molar): 93%
Percent Growth (M14; log10 conc -8 Molar): 92%
tumor growth [2]: showed inhibition of tumor growth
TGI (A498): 6.86E−06 Molar
Percent Growth (A498; log10 conc -4 Molar): −32%
Percent Growth (A498; log10 conc -5 Molar): −11%
Percent Growth (A498; log10 conc -6 Molar): 55%
Percent Growth (A498; log10 conc -7 Molar): 93%
Percent Growth (A498; log10 conc -8 Molar): 93%
GI50 (A498; Homo sapiens): 1.19 µM
CC50 (A498; [5]): > 100 µM
TGI (HS 578T; HS 578T): >1.00E−04 Molar
Percent Growth (HS 578T; HS 578T, log10 conc -4 Molar): 17%
Percent Growth (HS 578T; HS 578T, log10 conc -5 Molar): 31%
Percent Growth (HS 578T; HS 578T, log10 conc -6 Molar): 49%
Percent Growth (HS 578T; HS 578T, log10 conc -7 Molar): 74%
Percent Growth (HS 578T; HS 578T, log10 conc -8 Molar): 90%
GI50 (HS 578T; Homo sapiens, Hs-578T): 0.913 µM
CC50 (HS 578T; Homo sapiens, HS 578T, read-out: LC50 (the source's name)): > 100 µM
Body Weight Change [3]: 113%
Liver Weight [3]: 1.49 ± 0.04^c g
RBC [3]: 8.6 ± 1.6 10^6/mm^3
WBC [3]: 7.2 ± 1.7 10^3/mm^3
WBC, RBC, BUN and creatine levels [3]: no differences were found
activity against the human cell panel [4]: exhibited activity against the human cell panel
TGI (MDA-N): >1.00E−04 Molar
GI50 (MDA-N; Homo sapiens): 1.97 µM
CC50 (MDA-N; [5]): > 100 µM
Percent Growth (MDA-N; log10 conc -4 Molar): 22%
Percent Growth (MDA-N; log10 conc -5 Molar): 33%
Percent Growth (MDA-N; log10 conc -6 Molar): 57%
Percent Growth (MDA-N; log10 conc -7 Molar): 90%
Percent Growth (MDA-N; log10 conc -8 Molar): 96%
GI50 (TK-10; Homo sapiens): 16.9 µM
CC50 (TK-10; [5]): > 100 µM
TGI (TK-10): >1.00E−04 Molar
Percent Growth (TK-10; log10 conc -4 Molar): 34%
Percent Growth (TK-10; log10 conc -5 Molar): 55%
Percent Growth (TK-10; log10 conc -6 Molar): 85%
Percent Growth (TK-10; log10 conc -7 Molar): 105%
Percent Growth (TK-10; log10 conc -8 Molar): 102%
TGI (DU-145): >1.00E−04 Molar
Percent Growth (DU-145; log10 conc -4 Molar): 26%
Percent Growth (DU-145; log10 conc -5 Molar): 43%
Percent Growth (DU-145; log10 conc -6 Molar): 84%
Percent Growth (DU-145; log10 conc -7 Molar): 105%
Percent Growth (DU-145; log10 conc -8 Molar): 105%
GI50 (DU-145; Homo sapiens): 6.84 µM
CC50 (DU-145; [5]): > 100 µM
GI50 (UACC-257; Homo sapiens): 0.94 µM
CC50 (UACC-257; [5]): > 100 µM
TGI (UACC-257): >1.00E−04 Molar
Percent Growth (UACC-257; log10 conc -4 Molar): 7%
Percent Growth (UACC-257; log10 conc -5 Molar): 27%
Percent Growth (UACC-257; log10 conc -6 Molar): 49%
Percent Growth (UACC-257; log10 conc -7 Molar): 91%
Percent Growth (UACC-257; log10 conc -8 Molar): 98%

From patent US6992079B2, “Substituted 11-phenyl-dibenzazepine compounds useful for the treatment or prevention of diseases characterized by abnormal cell proliferation” (President Fellows of Harvard College, priority 1997, dated 2006)
